Results: BindingDB's records for doi:10.1016/j.bmcl.2005.10.011 (4Sc, 2006)

Biological target: T1, Dihydroorotate dehydrogenase (quinone), mitochondrial [30-395] (Homo sapiens, UniProt Q02127)
T1 construct: 30-395
Assay: DHODH Inhibition Assay
Details: pH 8; 25 °C
Experimental: The assays were carried out by using a colorimetric DCIP method, which uses the colorimetric reagent 2, 6-dichlorophenolindophenol as the final electron acceptor. DCIP reduction is stoichiometrically equivalent to oxidation of dihydroorotate. Changes in absorbance were quantified in triplicate on a plate reader and data were analyzed to measure the reduction of DCIP as a decrease in absorbance at 610 nm. […] Each data point was recorded in triplicates on a single measurement day.

T1 sequence (Q02127 30-395): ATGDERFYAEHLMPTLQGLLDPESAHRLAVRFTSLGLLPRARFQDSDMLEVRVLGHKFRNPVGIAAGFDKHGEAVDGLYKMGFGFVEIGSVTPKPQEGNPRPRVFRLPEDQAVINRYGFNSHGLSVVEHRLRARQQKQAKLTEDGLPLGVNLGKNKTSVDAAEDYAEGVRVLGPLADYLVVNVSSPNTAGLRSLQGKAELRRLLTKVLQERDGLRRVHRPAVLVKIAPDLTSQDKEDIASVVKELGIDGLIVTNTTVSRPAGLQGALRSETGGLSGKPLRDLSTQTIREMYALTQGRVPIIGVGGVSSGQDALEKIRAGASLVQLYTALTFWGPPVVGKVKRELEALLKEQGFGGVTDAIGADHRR

IC50: 0.01 µM
SMILES: O=C(O)c1cscc1C(=O)Nc1c(F)cc(-c2cccc(OC(F)(F)F)c2)cc1F [4-({2,6-difluoro-4-[3-(trifluoromethoxy)phenyl]phenyl}carbamoyl)thiophene-3-carboxylic acid]
